Measurements: the NIST ThermoML archive (doi:10.1016/j.jct.2008.04.008)
± gives the expanded uncertainty stated by the source.

Assay: mn = molality of the nth substance listed, in mol/kg
Conditions: Liquid; for speed of sound: Pulse-echo method

[Na+].[O-][Cl+3]([O-])([O-])[O-] [sodium perchlorate] + CO
Conditions | mass density, 283.15 K [kg/m3] | mass density, 288.15 K [kg/m3] | mass density, 293.15 K [kg/m3] | mass density, 298.15 K [kg/m3] | mass density, 303.15 K [kg/m3] | mass density, 308.15 K [kg/m3] | mass density, 313.15 K [kg/m3] | speed of sound, 298.15 K [m/s]
m1 = 0.06243 | 805.671 ± 0.29 | 800.986 ± 0.29 | 796.296 ± 0.3 | 791.593 ± 0.3 | 786.871 ± 0.31 | 782.134 ± 0.31 | 777.365 ± 0.32 | 1106.7 ± 0.91
m1 = 0.0815 | 807.203 ± 0.29 | 802.517 ± 0.29 | 797.826 ± 0.3 | 793.122 ± 0.3 | 788.409 ± 0.31 | 783.67 ± 0.31 | 778.903 ± 0.32 | 1107.7 ± 0.91
m1 = 0.1008 | 808.744 ± 0.29 | 804.058 ± 0.29 | 799.365 ± 0.3 | 794.669 ± 0.3 | 789.952 ± 0.31 | 785.213 ± 0.31 | 780.447 ± 0.32 | 1108.9 ± 0.91
m1 = 0.1221 | 810.429 ± 0.29 | 805.746 ± 0.29 | 801.058 ± 0.29 | 796.356 ± 0.3 | 791.635 ± 0.3 | 786.904 ± 0.31 | 782.14 ± 0.31 | 1110.1 ± 0.91
m1 = 0.1416 | 811.984 ± 0.28 | 807.3 ± 0.29 | 802.609 ± 0.29 | 797.903 ± 0.3 | 793.191 ± 0.3 | 788.455 ± 0.31 | 783.694 ± 0.31 | 1111.2 ± 0.91
m1 = 0.1625 | 813.649 ± 0.28 | 808.965 ± 0.29 | 804.274 ± 0.29 | 799.57 ± 0.3 | 794.858 ± 0.3 | 790.121 ± 0.31 | 785.36 ± 0.31 | 1112.4 ± 0.91
m1 = 0.2036 | 816.875 ± 0.28 | 812.189 ± 0.28 | 807.5 ± 0.29 | 802.798 ± 0.29 | 798.077 ± 0.3 | 793.334 ± 0.3 | 788.581 ± 0.31 | 1115.1 ± 0.92
m1 = 0.2459 | 820.175 ± 0.28 | 815.49 ± 0.28 | 810.8 ± 0.29 | 806.099 ± 0.29 | 801.382 ± 0.29 | 796.642 ± 0.3 | 791.885 ± 0.3 | 1117 ± 0.92
m1 = 0.2865 | 823.32 ± 0.27 | 818.628 ± 0.28 | 813.937 ± 0.28 | 809.237 ± 0.29 | 804.52 ± 0.29 | 799.783 ± 0.3 | 795.021 ± 0.3 | 1119 ± 0.92
m1 = 0.3276 | 826.533 ± 0.27 | 821.841 ± 0.28 | 817.143 ± 0.28 | 812.442 ± 0.28 | 807.725 ± 0.29 | 802.987 ± 0.29 | 798.225 ± 0.3 | 1121.3 ± 0.92
m1 = 0.3701 | 829.792 ± 0.27 | 825.099 ± 0.27 | 820.402 ± 0.28 | 815.691 ± 0.28 | 810.974 ± 0.29 | 806.236 ± 0.29 | 801.475 ± 0.29 | 1123.6 ± 0.92
m1 = 0.412 | 832.991 ± 0.27 | 828.296 ± 0.27 | 823.6 ± 0.27 | 818.891 ± 0.28 | 814.168 ± 0.28 | 809.417 ± 0.29 | 804.668 ± 0.29 | 1125.5 ± 0.92
